# Source: patent US9988377B2, “Small molecule inducers of GDNF as potential new therapeutics for neuropsychiatric disorders” (THE TRUSTEES OF COLUMBIA UNIVERSITY IN THE CITY OF NEW YORK, priority 2011, dated 2018)
# Where two headings read alike, the source gives them in different places.
# How the values were obtained:
# [1] = test system: GDNF release from C6 glioma cells; assay: GDNF in-situ ELISA in C6 glioma cells; format: cell-based; conditions: 10 μM compound, 48-hour incubation, fold over control release, corrected for pre-treatment release; for fold induction at 10 µM: C6 glioma, 48 h, read-out: Fold-Increase of GDNF Concentration
# Description: The GDNF Emax Immunoassay System from Promega (Madison, Wis.) was used to determine small molecule induced GDNF release from C6 glioma cells (ATCC, Manassas, Va.) with the following protocol. A 96-well ELISA plate was sterilized with UV for 30 minutes. The plate was coated with 100 μl/well of the anti-GDNF monoclonal antibody solution in carbonate coating buffer prepared per the manufacturer's instructions, and incubated overnight at 4° C. The antibody coating buffer was removed from the plate, which was then blocked according to the instructions in the kit. The plate was then incubated with 200 μl/well complete growth medium ([…], 5% FBS, 1% penicillin/streptomycin) for 2×1 h at rt to remove residue of the blocking buffer. After these washes were complete, fresh culture media was added to the wells. C6 cells were seeded at a density of 11,000 cells/well, with a total volume of approximately 150 μl in each well. The plate was incubated at 37° C. in an atmosphere containing 5% CO2. After 24 hours, complete growth medium was replaced with low serum medium (98.5% DMEM, 0.5% FBS, 1% penicillin/streptomycin) and the plate was incubated overnight for cellular synchronization. On the following day, cells were treated with experimental compounds for the indicated time. We used 10 μM concentrations of the tested compounds during a 48-hour incubation. Simultaneously with initiation of treatment, cells were removed from pre-treatment control wells with 5×200 μL washes of TBST (to control for basal GDNF release before the treatment period), and low-serum medium was added to these wells. 6 hours prior to stopping treatment with experimental compounds, the GDNF standard was added to the plate per the manufacturer's instructions. To terminate the treatment, the plate was washed extensively with 200 μl/well TBST washing buffer 5 times, which removed the cells. GDNF release for each well was measured according to GDNF Emax Immunoassay system instructions, and a plate reader was used to measure absorbance at 450 nm. Total GDNF release is calculated from the standard curve using Microsoft Excel. The listed values in Table 1 are presented as fold-increase of release of GDNF over control release of GDNF, corrected for pre-treatment release by subtracting from all values the mean amount of GDNF released in pre-treatment control wells. Statistical significance was determined using the Student's t-test.
# [2] = test system: GDNF release from C6 cells; assay: GDNF releasing potency assay (dose-response in C6 cells); format: cell-based; conditions: 0.1-50 uM, concentration giving 50% of maximal GDNF release
# Description: Four compounds were selected for determination of GDNF releasing potency. The EC50 value (Table 3) is defined as the concentration of the compound at which 50% of maximal GDNF release is obtained. The C6 cells were incubated with the selected compounds over a range of concentrations (0.1, 1, 5, 10, 20, 30 and 50 uM for each compound) and the amount of released GDNF at each concentration was via examing the dose-dependent release. A dose-response curve was constructed and the EC50 value was obtained by fitting this curve using GraphPad Prism software.
# [3] = test system: GDNF release by C6 glioma cells; assay: GDNF release by conventional ELISA in conditioned media of C6 glioma cells; format: cell-based; conditions: 48 h, 10 μM compound, 0.1% DMSO vehicle, representative experiment; for fold induction at 10 µM: C6 glioma, read-out: GDNF Increase ± SEM (fold/vehicle control)
# From the text: Conventional ELISAs were used to determine compound-induced increases of GDNF concentration in conditioned media of C6 glioma cells, and have afforded increased sensitivity compared to in-situ ELISA in our hands. C6 cells were purchased from ATCC (Manassas, Va.) at passage 37 and were used between passages 41-46. This requirement for a narrow range of passages is based on an observed decrease in magnitude of GDNF release with age of the cell line, and is consistent with reported behavior of C6 cells. All incubations were conducted at 37° C. in a humidified atmosphere containing 5% CO2. GDNF release was measured for each compound in 3 independent experiments. Briefly, C6 cells were seeded into sterile 12-well culture plates (Falcon) at a density of 300,000 cells per well and were recovered for 24 h in 1mL complete growth medium (94% high glucose DMEM, 5% FBS, 1% penicillin/streptomycin). Wells were then washed with 1mL sterile DPBS and were incubated for an additional 24 h with 0.5 mL low-serum medium (98.5% high glucose DMEM, 0.5% FBS, 1% penicillin/streptomycin). On the following day, experimental compounds or DMSO vehicle control were added each to duplicate wells in an additional 0.5 mL of low-serum medium. The final concentration of each compound was 10 μM in 1mL low-serum medium containing 0.1% DMSO. Plates were incubated with compounds and vehicle control for 48 h. Conditioned media were then collected from each well and GDNF concentrations were measured in triplicate on 96-well ELISA plates using the GDNF Emax Immunoassay System from Promega (Madison, Wis.) according to the manufacturer's instructions. A Bio-Tek H1MF plate reader (Burlington, Vt.) was used to measure absorbance from the resulting colorimetric reaction. Total GDNF release for each compound was calculated from the standard curve using Microsoft Excel. Data are normalized to the vehicle control and are thus presented as fold increase of GDNF concentration in experimental wells over that of the vehicle control. Each reported compound afforded a statistically significant increase of GDNF release over the DMSO control in each of three independent experiments conducted on separate days unless otherwise noted. Statistical significance within each experiment was determined by ANOVA followed by Tukey's post-hoc analysis using GraphPad Prism. Because of the naturally high variability of GDNF release values between experiments, data presented herein are intra-assay means from a representative experiment ±intra-assay standard error of the mean (SEM) calculated from biological replicates. Cytotoxicity for each compound was below 20% as measured by LDH levels in conditioned media (Cytotox 96, Promega).
# All results (Table 2) represent fold-increase of GDNF release by C6 glioma cells treated with the indicated compound for 48 hours, normalized to the vehicle control. Results are presented from a representative experiment and were determined to be statistically significant (ANOVA) compared to the vehicle control.
# alcohol intake [4] = conditions: rats; effect dependent on induction of GDNF in the VTA; cited from earlier work
# alcohol intake [5] = conditions: mice; effect dependent on induction of GDNF in the VTA; cited from earlier work
# [6] = Rattus norvegicus, C6, C6 cells
compound,measurement,setting,value
"CCC1CC2C=CC1N(CCc1c[nH]c3ccccc13)C2 (racemic) [Compound 10a, exo-2-[2-(1H-indol-3-yl)ethyl]-7-ethyl-2-azabicyclo[2.2.2]oct-5-ene]",Fold-Increase of GDNF Concentration,[1],3.2 ± 0.2 fold
same,EC50,[2]; [6],10.2 ± 0.3 µM
"CCC1CC2C=CC1N(CCc1c[nH]c3ccc(OC)cc13)C2 (racemic) [Compound 10b, exo-7-ethyl-2-[2-(5-methoxy-1H-indol-3-yl)ethyl]-2-azabicyclo[2.2.2]oct-5-ene]",fold induction at 10 µM,[1],2.2 ± 0.2
"CCC1CC2C=CC1N(CCc1c[nH]c3ccccc13)C2 (racemic) [Compound 12a, endo-2-[2-(1H-indol-3-yl)ethyl]-7-ethyl-2-azabicyclo[2.2.2]oct-5-ene]",fold induction at 10 µM,[1],2 ± 0.1
same,EC50,[2]; C6 cells,18.2 ± 0.2 µM
"CCC1CC2C=CC1N(CCCc1c[nH]c3ccccc13)C2 (racemic) [Compound 12b, endo-2-[3-(1H-indol-3-yl)propyl]-7-ethyl-2-azabicyclo [2.2.2] oct-5-ene]",fold induction at 10 µM,[1],1.5
"CCC1CC2C=CC1N(CCc1c[nH]c3ccc(OC)cc13)C2 (racemic) [Compound 12c, endo-7-ethyl-2-[2-(5-methoxy-1H-indol-3-yl)ethyl]-2-azabicyclo [2.2.2]oct-5-ene]",Fold-Increase of GDNF Concentration,[1],2.1 ± 0.1 fold
"CCOC(=O)c1[nH]c2ccccc2c1CCN1CC2C=CC1C(CC)C2 (racemic) [Compound 12d, endo-ethyl-3-[2-(7-ethyl-2-azabicyclo[2.2.2]oct-5-en-2-yl)ethyl]-1H-indole-2-carboxylate]",fold induction at 10 µM,[1],1.5
"CCC1CC2C=CC1N(CCc1c[nH]c3ccc(C(F)(F)F)cc13)C2 (racemic) [Compound 12f, endo-7-ethyl-2-[2-(5-trifluoromethyl-1H-indol-3-yl)ethyl]-2-azabicyclo[2.2.2]oct-5-ene]",fold induction at 10 µM,[1],2
"CCC1CC2C=CC1N(CCc1coc3ccccc13)C2 (racemic) [Compound 12g, endo-2-[2-(benzofuran-3-yl)ethyl]-7-ethyl-2-azabicyclo [2.2.2]oct-5-ene]",fold induction at 10 µM,[1],2.9 ± 0.1
same,EC50,[2]; C6 cells,3.6 ± 0.1 µM
same,EC50,[2]; [6],3.3 µM
"CCC1CC2C=CC1N(CCc1c[nH]c3ccc(F)cc13)C2 (racemic) [Compound 12h, endo-7-ethyl-2-[2-(5-fluoro-1H-indol-3-yl)ethyl]-2-azabicyclo[2.2.2]oct-5-ene]",fold induction at 10 µM,[1],3.1 ± 0.2
same,EC50,[2]; [6],3.3 µM
"CCC1CC2C=CC1N(CCc1nc3ccccc3[nH]1)C2 (racemic) [Compound 12l, endo-2-[2-(1H-benzo[d]imidazol-2-yl)ethyl]-7-ethyl-2-azabicyclo[2.2.2]oct-5-ene]",fold induction at 10 µM,[1],1.5
"CCC1CC2CCC1N(CCc1c[nH]c3ccccc13)C2 (racemic) [Compound 13a, endo-2-[2-(1H-indol-3-yl)ethyl]-7-ethyl-2-azabicyclo [2.2.2]octane]",fold induction at 10 µM,[1],2
"CCC1CC2CCC1N(CCc1c[nH]c3ccc(F)cc13)C2 (racemic) [Compound 13b, endo-7-ethyl-2-[2-(5-fluoro-1H-indol-3-yl)ethyl]-2-azabicyclo [2.2.2]octane]",fold induction at 10 µM,[1],2
"C1=CC2CCC1CN2CCc1c[nH]c2ccccc12 (racemic) [Compound 18a, 2-[2-(1H-indol-3-yl)ethyl]-2-azabicyclo[2.2.2]oct-5-ene]",fold induction at 10 µM,[1],1.6
"C1=CC2CCC1CN2Cc1c[nH]c2ccccc12 (racemic) [Compound 18b, 2-[(1H-indol-3-yl)methyl]-2-azabicyclo[2.2.2]oct-5-ene]",fold induction at 10 µM,[1],1.6 ± 0.1
"CCOC(=O)C1CC2C=CC1N(CCc1c[nH]c3ccccc13)C2 (racemic) [Compound 21, 7-exo-ethoxycarbonyl-2-[2-(1H-indol-3-yl)ethyl]-2-azabicyclo[2.2.2]oct-5-ene]",fold induction at 10 µM,[1],1
"CCOC(=O)C1CC2C=CC1N(CCc1c[nH]c3ccccc13)C2 (racemic) [Compound 22, 7-endo-ethoxycarbonyl-2-[2-(1H-indol-3-yl)ethyl]-2-azabicyclo[2.2.2]oct-5-ene]",Fold-Increase of GDNF Concentration,[1],2.0 ± 0.0 fold
"C1=CC2C(COCc3ccccc3)CC1CN2CCc1c[nH]c2ccccc12 (racemic) [Compound 86, endo-2-(2-(1H-indol-3-yl)ethyl)-7-(benzyloxymethyl)-2-azabicyclo[2.2.2]oct-5-ene]",fold induction at 10 µM,[3],13.8 ± 2.01
"CCC1CC2C=CC1N(CCc1c[nH]c3cccc(F)c13)C2 (racemic) [Compound 87, endo-7-ethyl-2-(2-(4-fluoro-1H-indol-3-yl)ethyl)-2-azabicyclo[2.2.2]oct-5-ene]",GDNF Increase ± SEM (fold/vehicle control),[3],10.87 ± 0.84 fold/vehicle control
"CCC1CC2C=CC1N(CCc1c[nH]c3c(F)cccc13)C2 (racemic) [Compound 89, endo-7-ethyl-2-(2-(7-fluoro-1H-indol-3-yl)ethyl)-2-azabicyclo[2.2.2]oct-5-ene]",GDNF Increase ± SEM (fold/vehicle control),[3],14.71 ± 0.11 fold/vehicle control
"CCC1CC2C=CC1N(CCc1csc3ccccc13)C2 (racemic) [Compound 90, endo-2-(2-(benzo[b]thiophen-3-yl)ethyl)-7-ethyl-2-azabicyclo[2.2.2]oct-5-ene]",GDNF Increase ± SEM (fold/vehicle control),[3],11.86 ± 0.01 fold/vehicle control
"CCCC1CC2C=CC1N(CCc1c[nH]c3ccccc13)C2 (stereo not drawn) [Compound 74, exo-2-(2-(1H-indol-3-yl)ethyl)-7-propyl-2-azabicyclo[2.2.2]oct-5-ene]",fold induction at 10 µM,[3],7.11 ± 1.17
"CCC1CC2C=CC1N(CCCc1c[nH]c3ccccc13)C2 (stereo not drawn) [Compound 81, exo-2-(3-(1H-indol-3-yl)propyl)-7-ethyl-2-azabicyclo[2.2.2]oct-5-ene]",GDNF Increase ± SEM (fold/vehicle control),[3],12.55 ± 0.05 fold/vehicle control
CC[C@H]1C[C@H]2C[C@H]3c4[nH]c5ccc(O)cc5c4CCN(C2)[C@@H]13 [noribogaine],self-administration and reinstatement of alcohol intake,alcohol intake [4],reduce self-administration and reinstatement of alcohol intake
same,self-administration and reinstatement of alcohol intake,alcohol intake [5],reduce self-administration and reinstatement of alcohol intake
